Laboratory results as given in patent US20260042755A1, “GPR6 INVERSE AGONISTS” (MapLight Therapeutics, Inc., priority 2022, published 2026).

Assays:
[1] = molecular target: T1, GPR6 (Homo sapiens, UniProt P46095); test: GPR6 antagonist functional cAMP assay (LANCE Ultra cAMP TR-FRET, CHO cells stably expressing GPR6); assay type: cell-based; settings: CHO cells stably expressing GPR6, cAMP assay
T1 construct: expressed in transfected cells; host or cells: CHO cells
In short: (§1)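 Read-out was TR-FRET cAMP signal at 665 nm after 1 h at room temperature, following 45 min compound exposure at 37 °C. Assay buffer contained 0.1% BSA and 150 μM Ro 20-1724. Antagonist IC50s were fitted with a 4-parameter logistic against DMSO and reference controls.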

[2] = molecular target: T2, GPR3 (Homo sapiens, UniProt P46089); test: GPR3 antagonist functional cAMP assay (LANCE Ultra cAMP TR-FRET, CHO cells stably expressing GPR3); assay type: cell-based; settings: CHO cells stably expressing GPR3, cAMP assay
T2 construct: expressed in transfected cells; host or cells: CHO cells
In short: as §1

T2 sequence (P46089 whole entry, species assumed): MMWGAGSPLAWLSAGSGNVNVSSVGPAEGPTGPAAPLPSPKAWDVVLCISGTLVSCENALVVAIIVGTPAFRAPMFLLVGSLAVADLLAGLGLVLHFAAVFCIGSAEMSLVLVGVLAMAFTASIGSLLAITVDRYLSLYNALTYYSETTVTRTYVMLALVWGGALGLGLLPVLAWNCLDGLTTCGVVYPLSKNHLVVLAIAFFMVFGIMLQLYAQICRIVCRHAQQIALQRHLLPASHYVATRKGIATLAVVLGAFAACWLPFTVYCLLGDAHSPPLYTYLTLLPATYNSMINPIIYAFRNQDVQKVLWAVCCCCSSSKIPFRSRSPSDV
T1 sequence (P46095 whole entry): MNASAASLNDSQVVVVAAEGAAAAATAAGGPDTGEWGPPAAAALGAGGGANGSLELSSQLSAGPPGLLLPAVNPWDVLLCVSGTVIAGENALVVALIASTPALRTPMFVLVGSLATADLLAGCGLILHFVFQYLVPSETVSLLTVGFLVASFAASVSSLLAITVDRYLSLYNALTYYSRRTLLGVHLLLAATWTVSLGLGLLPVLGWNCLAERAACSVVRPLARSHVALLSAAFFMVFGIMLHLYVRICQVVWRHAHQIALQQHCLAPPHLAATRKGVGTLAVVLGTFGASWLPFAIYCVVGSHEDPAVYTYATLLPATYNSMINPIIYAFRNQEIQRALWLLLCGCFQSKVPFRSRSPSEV

Row | SMILES | IC50 [1] [nM] | IC50 [2] [nM]
1 | CC(=O)N1CCc2nc(N3CCN(Cc4ccc[nH]c4=O)CC3)c(-c3cnn(C)c3)nc2C1 [Compound 531, 3-({4-[6-acetyl-3-(1-methyl-4-pyrazolyl)-5,6,7,8-tetrahydro-1,4,6-triaza-2-naphthyl]-1-piperazinyl}methyl)-2(1H)-pyridinone] | ≥ 30000 | ≥ 30000
2 | CC(=O)N1CCc2nc(N3CCN(Cc4ccc(=O)[nH]c4)CC3)c(-c3cnn(C)c3)nc2C1 [Compound 532, 5-({4-[6-acetyl-3-(1-methyl-4-pyrazolyl)-5,6,7,8-tetrahydro-1,4,6-triaza-2-naphthyl]-1-piperazinyl}methyl)-2(1H)-pyridinone] | ≥ 30000 | ≥ 30000
3 | CC(=O)N1CCc2nc(N3CCN(Cc4cccc(=O)n4C)CC3)c(-c3cnn(C)c3)nc2C1 [Compound 533, 6-({4-[6-acetyl-3-(1-methyl-4-pyrazolyl)-5,6,7,8-tetrahydro-1,4,6-triaza-2-naphthyl]-1-piperazinyl}methyl)-1-methyl-2(1H)-pyridinone] | ≥ 30000 | ≥ 30000
4 | CC(=O)N1CCc2nc(N3CCN(Cc4cccn(C)c4=O)CC3)c(-c3cnn(C)c3)nc2C1 [Compound 534, 3-({4-[6-acetyl-3-(1-methyl-4-pyrazolyl)-5,6,7,8-tetrahydro-1,4,6-triaza-2-naphthyl]-1-piperazinyl}methyl)-1-methyl-2(1H)-pyridinone] | ≥ 30000 | ≥ 30000
5 | CC(=O)N1CCc2nc(N3CCN(Cc4ccc(=O)n(C)c4)CC3)c(-c3cnn(C)c3)nc2C1 [Compound 535, 5-({4-[6-acetyl-3-(1-methyl-4-pyrazolyl)-5,6,7,8-tetrahydro-1,4,6-triaza-2-naphthyl]-1-piperazinyl}methyl)-1-methyl-2(1H)-pyridinone] | ≥ 30000 | ≥ 30000
6 | CC(=O)N1CCc2nc(N3CCN(Cc4cn[nH]c4)CC3)c(-c3cnn(C)c3)nc2C1 [Compound 536, 1-[3-(1-methyl-4-pyrazolyl)-2-{4-[(4-pyrazolyl)methyl]-1-piperazinyl}-5,6,7,8-tetrahydro-1,4,6-triaza-6-naphthyl]-1-ethanone] | ≥ 30000 | ≥ 30000
7 | CC(=O)N1CCc2nc(N3CCN(Cc4ccco4)CC3)c(-c3cnn(C)c3)nc2C1 [Compound 537, 1-[2-(4-furfuryl-1-piperazinyl)-3-(1-methyl-4-pyrazolyl)-5,6,7,8-tetrahydro-1,4,6-triaza-6-naphthyl]-1-ethanone] | 1000 to 30000 | 1000 to 30000
8 | CC(=O)N1CCc2nc(N3CCN(C(=O)c4ccc(Cl)cc4)CC3)c(-c3cnn(C)c3)nc2C1 [Compound 538, 1-{2-[4-(p-chlorobenzoyl)-1-piperazinyl]-3-(1-methyl-4-pyrazolyl)-5,6,7,8-tetrahydro-1,4,6-triaza-6-naphthyl}-1-ethanone] | 100 to 1000 | 1000 to 30000
9 | CC(=O)N1CCc2nc(N3CCN(C(=O)c4ccc(Cl)c(C)c4)CC3)c(-c3cnn(C)c3)nc2C1 [Compound 539, 1-{2-[4-(4-chloro-3-toluoyl)-1-piperazinyl]-3-(1-methyl-4-pyrazolyl)-5,6,7,8-tetrahydro-1,4,6-triaza-6-naphthyl}-1-ethanone] | 1000 to 30000 | 1000 to 30000
10 | CC(=O)N1Cc2nc(-c3cnn(C)c3)c(N3CCC(Oc4ccc(F)cc4F)CC3)nc2C(C)C1 (stereo not drawn) [Compound 540, 1-{2-[4-(2,4-difluorophenoxy)-1-piperidyl]-8-methyl-3-(1-methyl-4-pyrazolyl)-5,6,7,8-tetrahydro-1,4,6-triaza-6-naphthyl}-1-ethanone] | < 100 | 1000 to 30000
11 | CC(=O)N1CCc2nc(N3CCC(C(=O)c4ccc(F)cc4F)CC3)c(-c3cnn(C)c3)nc2C1 [Compound 541, 1-{2-[4-(2,4-difluorobenzoyl)-1-piperidyl]-3-(1-methyl-4-pyrazolyl)-5,6,7,8-tetrahydro-1,4,6-triaza-6-naphthyl}-1-ethanone] | 100 to 1000 | 1000 to 30000
12 | CC(=O)N1CCc2nc(N3CCC(=Cc4ccc(F)cc4F)CC3)c(-c3cnn(C)c3)nc2C1 [Compound 542, 1-(2-(4-(2,4-difluorobenzylidene)piperidin-1-yl)-3-(1-methyl-1H-pyrazol-4-yl)-7,8-dihydropyrido[3,4-b]pyrazin-6(5H)-yl)ethan-1-one] | < 100 | 100 to 1000
13 | CC(=O)N1CCc2nc(N3CCC(Oc4ccc(F)cc4F)CC3)c(C3CCN(S(C)(=O)=O)C3)nc2C1 (stereo not drawn) [Compound 543, 1-{2-[4-(2,4-difluorophenoxy)-1-piperidyl]-3-(1-mesyl-3-pyrrolidinyl)-5,6,7,8-tetrahydro-1,4,6-triaza-6-naphthyl}-1-ethanone] | 1000 to 30000 | 1000 to 30000
14 | CC(=O)N1CCc2nc(N3CCC(Oc4ccc(F)cc4F)CC3)c(C3CCN(C4COC4)C3)nc2C1 (stereo not drawn) [Compound 544, 1-{2-[4-(2,4-difluorophenoxy)-1-piperidyl]-3-[1-(3-oxetanyl)-3-pyrrolidinyl]-5,6,7,8-tetrahydro-1,4,6-triaza-6-naphthyl}-1-ethanone] | 1000 to 30000 | 1000 to 30000
15 | CC(=O)N1CCc2nc(N3CCC(C(O)c4ccc(F)cc4F)CC3)c(-c3cnn(C)c3)nc2C1 (stereo not drawn) [Compound 545, 1-(2-{4-[(2,4-difluorophenyl)hydroxymethyl]-1-piperidyl}-3-(1-methyl-4-pyrazolyl)-5,6,7,8-tetrahydro-1,4,6-triaza-6-naphthyl)-1-ethanone] | 100 to 1000 | 1000 to 30000
16 | COC[C@H]1C[C@@H]1c1nc2c(nc1N1CCC(Oc3ccc(F)cc3F)CC1)CCN(C(C)=O)C2 [Compound 546, 1-{3-[(1S,2S)-2-(methoxymethyl)cyclopropyl]-2-[4-(2,4-difluorophenoxy)-1-piperidyl]-5,6,7,8-tetrahydro-1,4,6-triaza-6-naphthyl}-1-ethanone] | < 100 | 1000 to 30000
17 | COC[C@@H]1C[C@H]1c1nc2c(nc1N1CCC(Oc3ccc(F)cc3F)CC1)CCN(C(C)=O)C2 [Compound 547, 1-{3-[(1R,2R)-2-(methoxymethyl)cyclopropyl]-2-[4-(2,4-difluorophenoxy)-1-piperidyl]-5,6,7,8-tetrahydro-1,4,6-triaza-6-naphthyl}-1-ethanone] | 1000 to 30000 | 1000 to 30000
18 | CC(=O)N1CCc2nc(N3CCN(Cc4c[nH]cn4)CC3)c(-c3cnn(C)c3)nc2C1 [Compound 548, 1-(2-{4-[(4-imidazolyl)methyl]-1-piperazinyl}-3-(1-methyl-4-pyrazolyl)-5,6,7,8-tetrahydro-1,4,6-triaza-6-naphthyl)-1-ethanone] | ≥ 30000 | ≥ 30000
19 | CCn1cc(-c2nc3c(nc2N2CCN(C(=O)c4ccc(Cl)cc4)CC2)CCN(C(C)=O)C3)cn1 [Compound 549, 1-{2-[4-(p-chlorobenzoyl)-1-piperazinyl]-3-(1-ethyl-4-pyrazolyl)-5,6,7,8-tetrahydro-1,4,6-triaza-6-naphthyl}-1-ethanone] | 100 to 1000 | 1000 to 30000
20 | CCn1cc(-c2nc3c(nc2N2CCN(C(=O)c4ccc(Cl)c(C)c4)CC2)CCN(C(C)=O)C3)cn1 [Compound 550, 1-{2-[4-(4-chloro-3-toluoyl)-1-piperazinyl]-3-(1-ethyl-4-pyrazolyl)-5,6,7,8-tetrahydro-1,4,6-triaza-6-naphthyl}-1-ethanone] | 1000 to 30000 | 1000 to 30000
21 | CC(=O)N1CCc2nc(N3CCN(C(CO)(CO)c4cc(F)ccc4F)CC3)c(-c3cnn(C)c3)nc2C1 [Compound 551, 1-(2-{4-[1-(2,5-difluorophenyl)-2-hydroxy-1-(hydroxymethyl)ethyl]-1-piperazinyl}-3-(1-methyl-4-pyrazolyl)-5,6,7,8-tetrahydro-1,4,6-triaza-6-naphthyl)-1-ethanone] | 100 to 1000 | ≥ 30000
22 | CC(=O)N1CCc2nc(N3CCN(C(CO)(CO)c4ccccc4F)CC3)c(-c3cnn(C)c3)nc2C1 [Compound 552, 1-(2-{4-[1-(o-fluorophenyl)-2-hydroxy-1-(hydroxymethyl)ethyl]-1-piperazinyl}-3-(1-methyl-4-pyrazolyl)-5,6,7,8-tetrahydro-1,4,6-triaza-6-naphthyl)-1-ethanone] | 1000 to 30000 | ≥ 30000
23 | Cn1cc(-c2nc3cnc(C(C)(O)CO)cc3nc2N2CCC(Oc3ccc(F)cc3F)CC2)cn1 (stereo not drawn) [Compound 556, 2-{2-[4-(2,4-difluorophenoxy)-1-piperidyl]-3-(1-methyl-4-pyrazolyl)-1,4,6-triaza-7-naphthyl}-1,2-propanediol] | 100 to 1000 | 1000 to 30000
24 | CC(=O)N1CCc2nc(N3CCC(C(F)c4ccc(F)cc4F)CC3)c(-c3cnn(C)c3)nc2C1 (stereo not drawn) [Compound 557, 1-(2-{4-[(2,4-difluorophenyl)fluoromethyl]-1-piperidyl}-3-(1-methyl-4-pyrazolyl)-5,6,7,8-tetrahydro-1,4,6-triaza-6-naphthyl)-1-ethanone] | < 100 | < 100
25 | CC(=O)N1CCc2nc(N3CCC(C(C)(O)c4ccc(F)cc4F)CC3)c(-c3cnn(C)c3)nc2C1 (stereo not drawn) [Compound 558, 1-(2-{4-[1-(2,4-difluorophenyl)-1-hydroxyethyl]-1-piperidyl}-3-(1-methyl-4-pyrazolyl)-5,6,7,8-tetrahydro-1,4,6-triaza-6-naphthyl)-1-ethanone] | 1000 to 30000 | 100 to 1000
26 | CC(C)(O)C(O)c1cc2nc(N3CCN(Cc4ccccc4F)CC3)c(-c3cnn(C(F)F)c3)nc2cn1 (stereo not drawn) [Compound 559, 1-{3-[1-(difluoromethyl)-4-pyrazolyl]-2-{4-[(o-fluorophenyl)methyl]-1-piperazinyl}-1,4,6-triaza-7-naphthyl}-2-methyl-1,2-propanediol] | 100 to 1000 | 1000 to 30000
27 | CC(=O)N1CCc2nc(N3CCC(=Cc4ccc(F)cc4)CC3)c(-c3cnn(C)c3)nc2C1 [Compound 560, 1-(2-{4-[(p-fluorophenyl)methylene]-1-piperidyl}-3-(1-methyl-4-pyrazolyl)-5,6,7,8-tetrahydro-1,4,6-triaza-6-naphthyl)-1-ethanone] | < 100 | 100 to 1000
